These results are taken from patent US8877707B2, “Inhibitors of HCV NS5A” (Presidio Pharmaceuticals, Inc., priority 2010, dated 2014).

Structures are written as SMILES. Bounds are passed on as bounds.

This assay relates to HCV genotype 1b replicon in Huh 7 cells. Description: HCV replicon assay (1b_Huh-Luc/Neo-ET cell line, luciferase readout). The format is cell-based. The note with it: Hepatitis C virus; Table 1; genotype 1b replicon, Huh 7 cells, 72 h, luciferase; read-out: Inhibition of HCV genotype 1b. An outline of the steps:
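Huh 7 cells carrying a bicistronic genotype 1b luciferase replicon were treated with compound in triplicate the day after plating and incubated 72 h. Luciferase activity expressed as % of untreated control; EC50 from a four-parameter logistic fit, repeated several times.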
On the technique in general: In antiviral work, replicon cells carry a viral genome segment that copies itself.

Take `COC(=O)N[C@H](C(=O)N1CCC[C@H]1c1nc(-c2ccc3nc(-c4ccc(-c5cnc([C@@H]6CCCN6C(=O)[C@@H](NC(=O)OC)C(C)C)[nH]5)cc4F)ccc3c2)c[nH]1)C(C)C` [compound 96]: the EC50 was less than 1 nM.

Consider `COC(=O)N[C@@H](C(=O)N1CCC[C@H]1c1nc(-c2ccc3nc(-c4ccc(-c5cnc([C@@H]6CCCN6C(=O)[C@H](NC(=O)OC)c6ccccc6)[nH]5)cc4F)ccc3c2)c[nH]1)c1ccccc1` [compound 97], for which the EC50 is less than 1 nM.

Regarding `COC(=O)N[C@H](C(=O)N1CCC[C@H]1c1nc(-c2ccc3nc(-c4ccc(-c5cnc([C@@H]6CCCN6C(=O)[C@@H](NC(=O)OC)C6CCOCC6)[nH]5)cc4F)ccc3c2)c[nH]1)C1CCOCC1` [compound 98], the EC50 is less than 1 nM.

Take `COC(=O)N[C@H](C(=O)N1CCC[C@H]1c1nc(-c2ccc3cc(-c4ccc(-c5cnc([C@@H]6CCCN6C(=O)[C@H](NC(=O)OC)c6ccccc6)[nH]5)cc4)ccc3c2)c[nH]1)C1CCOCC1` [compound 99]: the EC50 is less than 1 nM.

As for `COC(=O)N[C@H](C(=O)N1CCC[C@H]1c1nc(-c2ccc3cc(-c4ccc(-c5cnc([C@@H]6CCCN6C(=O)[C@H](NC(=O)OC)c6ccccc6)[nH]5)cc4)ncc3c2)c[nH]1)C1CCOCC1` [compound 100], the EC50 is less than 1 nM.

In the case of `COC(=O)N[C@H](C(=O)N1CCC[C@H]1c1ncc(-c2ccc(-c3cc4ccc(-c5c[nH]c([C@@H]6CCCN6C(=O)[C@H](NC(=O)OC)c6ccccc6)n5)cc4cn3)cc2)[nH]1)C1CCOCC1` [compound 101], the EC50 is less than 1 nM.

For `COC(=O)N[C@H](C(=O)N1CCC[C@H]1c1nc(-c2ccc3cc(-c4ccc(-c5cnc([C@@H]6CCCN6C(=O)[C@@H](NC(=O)OC)C(C)C)[nH]5)cc4)ccc3n2)c[nH]1)C(C)C` [compound 102], the EC50 was less than 1 nM.

Regarding `COC(=O)N[C@H](C(=O)N1CCC[C@H]1c1ncc(-c2ccc(-c3ccc4nc(-c5c[nH]c([C@@H]6CCCN6C(=O)[C@H](NC(=O)OC)c6ccccc6)n5)ccc4c3)cc2)[nH]1)C(C)C` [compound 103], the EC50 was less than 1 nM.

Consider `COC(=O)N[C@H](C(=O)N1CCC[C@H]1c1ncc(-c2ccc(-c3ccc4cc(-c5c[nH]c([C@@H]6CCCN6C(=O)[C@@H](NC(=O)OC)C6CCOCC6)n5)ccc4c3)c(C)c2)[nH]1)C(C)C` [compound 104], for which the EC50 is less than 1 nM.

As for `COC(=O)N[C@H](C(=O)N1CCC[C@H]1c1ncc(-c2ccc(-c3ccc4cc(-c5c[nH]c([C@@H]6CCCN6C(=O)[C@H](NC(=O)OC)c6ccccc6)n5)ccc4c3)cc2)[nH]1)C1CCOCC1` [compound 105], the EC50 was less than 1 nM.

Regarding `COC(=O)N[C@H](C(=O)N1CCC[C@H]1c1ncc(-c2ccc(-c3ccc4cc(-c5c[nH]c([C@@H]6CCCN6C(=O)[C@H](NC(=O)OC)c6ccccc6)n5)ccc4c3)c(F)c2)[nH]1)C1CCOCC1` [compound 106], the EC50 is less than 1 nM.

For `COC(=O)N[C@H](C(=O)N1CCC[C@H]1c1nc(-c2ccc3nc(-c4ccc(-c5cnc([C@@H]6CCCN6C(=O)[C@H](NC(=O)OC)c6ccccc6)[nH]5)cc4F)ccc3c2)c[nH]1)C(C)C` [compound 107], the EC50 is less than 1 nM.

As to `COC(=O)N[C@H](C(=O)N1CCC[C@H]1c1nc(-c2ccc3nc(-c4ccc(-c5cnc([C@@H]6CCCN6C(=O)[C@@H](NC(=O)OC)C6CCOCC6)[nH]5)c(F)c4)ccc3c2)c[nH]1)C1CCOCC1` [compound 108], the EC50 is less than 1 nM.

With `COC(=O)N[C@@H](C(=O)N1CCC[C@H]1c1nc(-c2ccc3nc(-c4ccc(-c5cnc([C@@H]6CCCN6C(=O)[C@H](NC(=O)OC)c6ccccc6)[nH]5)c(F)c4)ccc3c2)c[nH]1)c1ccccc1` [compound 109], the EC50 was less than 1 nM.

Consider `COC(=O)N[C@H](C(=O)N1CCC[C@H]1c1nc(-c2ccc3cc(-c4ccc(-c5cnc([C@@H]6CCCN6C(=O)[C@H](NC(=O)OC)c6ccsc6)[nH]5)cc4)ccc3c2)c[nH]1)C1CCOCC1` [compound 110], for which the EC50 was less than 1 nM.

Take `COC(=O)N[C@H](C(=O)N1CCC[C@H]1c1nc(-c2ccc3cc(-c4ccc(-c5cnc([C@@H]6CCCN6C(=O)[C@H](NC(=O)OC)c6ccc(F)cc6)[nH]5)cc4)ccc3c2)c[nH]1)C1CCOCC1` [compound 111]: the EC50 was less than 1 nM.

In the case of `COC(=O)N[C@H](C(=O)N1CCC[C@H]1c1nc(-c2ccc3cc(-c4ccc(-c5cnc([C@@H]6CCCN6C(=O)[C@@H](NC(=O)OC6CCOCC6)c6ccccc6)[nH]5)cc4)ccc3c2)c[nH]1)C1CCOCC1` [compound 112], the EC50 is less than 1 nM.

Turning to `COC(=O)N[C@H](C(=O)N1CCC[C@H]1c1nc(-c2ccc3cc(-c4ccc(-c5cnc([C@@H]6CCCN6C(=O)[C@H](NC(=O)OC6CCOCC6)c6ccccc6)[nH]5)cc4)ccc3c2)c[nH]1)C1CCOCC1` [compound 113], the EC50 is less than 1 nM.

As for `COC(=O)N[C@H](C(=O)N1CCC[C@H]1c1nc(-c2ccc3cc(-c4ccc(-c5cnc([C@@H]6CCCN6C(=O)[C@H](NC(=O)OC)c6ccccc6)[nH]5)cc4F)ccc3c2)c[nH]1)C1CCOCC1` [compound 114], the EC50 was less than 1 nM.

For the compound `COC(=O)N[C@H](C(=O)N1CCC[C@H]1c1ncc(-c2ccc3cc(-c4ccc(-c5cnc([C@@H]6CCCN6C(=O)[C@H](NC(=O)OC)c6ccccc6)[nH]5)cc4)ccc3c2)[nH]1)[C@@H](C)OC` [compound 115], the EC50 was less than 1 nM.

In the case of `COC(=O)N[C@H](C(=O)N1CCC[C@H]1c1ncc(-c2ccc3cc(-c4ccc(-c5cnc([C@@H]6CCCN6C(=O)[C@@H](c6ccccc6)N6CCOCC6)[nH]5)cc4)ccc3c2)[nH]1)C(C)C` [compound 116], the EC50 was less than 1 nM.

Consider `COC(=O)N[C@H](C(=O)N1CCC[C@H]1c1ncc(-c2ccc3cc(-c4ccc(-c5cnc([C@@H]6CCCN6C(=O)[C@H](NC(=O)OC6CCOCC6)c6ccccc6)[nH]5)cc4)ncc3c2)[nH]1)C1CCOCC1` [compound 117], for which the EC50 was less than 1 nM.

As for `COC(=O)N[C@H](C(=O)N1CCC[C@H]1c1ncc(-c2ccc3cc(-c4ccc(-c5cnc([C@@H]6CCCN6C(=O)[C@H](NC(=O)OC(C)(C)C)c6ccccc6)[nH]5)cc4)ncc3c2)[nH]1)C1CCOCC1` [compound 118], the EC50 is less than 1 nM.

Consider `COC(=O)N[C@H](C(=O)N1CCC[C@H]1c1ncc(-c2ccc(-c3ccc4cc(-c5cnc([C@@H]6CCCN6C(=O)[C@H](NC(=O)OC)c6ccccc6)[nH]5)ccc4n3)c(F)c2)[nH]1)C(C)C` [compound 119], for which the EC50 was less than 1 nM.

In the case of `COC(=O)N[C@H](C(=O)N1CCC[C@H]1c1ncc(-c2ccc(-c3ccc4cc(-c5cnc([C@@H]6CCCN6C(=O)[C@@H](NC(=O)OC)C6CCOCC6)[nH]5)ccc4n3)c(F)c2)[nH]1)C(C)C` [compound 120], the EC50 is less than 1 nM.

In the case of `COC(=O)N[C@H](C(=O)N1CCC[C@H]1c1ncc(-c2ccc(-c3ccc4cc(-c5cnc([C@@H]6CCCN6C(=O)[C@H](NC(=O)OC6CCOCC6)c6ccccc6)[nH]5)ccc4n3)c(F)c2)[nH]1)C(C)C` [compound 121], the EC50 is less than 1 nM.

As to `COC(=O)N[C@H](C(=O)N1CCC[C@H]1c1ncc(-c2ccc(-c3ccc4cc(-c5cnc([C@@H]6CCCN6C(=O)[C@H](NC(=O)OC(C)(C)C)c6ccccc6)[nH]5)ccc4n3)c(F)c2)[nH]1)C(C)C` [compound 122], the EC50 was less than 1 nM.

For `COC(=O)N[C@H](C(=O)N1CCC[C@H]1c1ncc(-c2ccc(-c3ccc4cc(-c5cnc([C@@H]6CCCN6C(=O)[C@@H](NC(=O)OC)C6CCOCC6)[nH]5)ccc4n3)cc2F)[nH]1)C(C)C` [compound 123], the EC50 is less than 1 nM.

For the compound `COC(=O)N[C@H](C(=O)N1CCC[C@H]1c1ncc(-c2ccc(-c3ccc4cc(-c5cnc([C@@H]6CCCN6C(=O)[C@H](NC(=O)OC)c6ccccc6)[nH]5)ccc4n3)cc2F)[nH]1)C(C)C` [compound 124], the EC50 is less than 1 nM.

Regarding `COC(=O)N[C@H](C(=O)N1CCC[C@H]1c1ncc(-c2ccc(-c3ccc4cc(-c5cnc([C@@H]6CCCN6C(=O)[C@H](NC(=O)OC6CCOCC6)c6ccccc6)[nH]5)ccc4n3)cc2F)[nH]1)C(C)C` [compound 125], the EC50 is less than 1 nM.

Take `COC(=O)N[C@H](C(=O)N1CCC[C@H]1c1ncc(-c2ccc3nc(-c4ccc(-c5cnc([C@@H]6CCCN6C(=O)[C@@H](NC(=O)OC)C(C)C)[nH]5)c(F)c4)ccc3c2)[nH]1)C(C)C` [compound 126]: the EC50 is less than 1 nM.

Turning to `COC(=O)N[C@H](C(=O)N1CCC[C@H]1c1ncc(-c2ccc3cc(-c4ccc(-c5cnc([C@@H]6CCCN6C(=O)[C@H](NC(=O)OC)c6ccccc6)[nH]5)c(F)c4)ncc3c2)[nH]1)C1CCOCC1` [compound 127], the EC50 was less than 1 nM.

Regarding `COC(=O)N[C@H](C(=O)N1CCC[C@H]1c1ncc(-c2ccc(-c3cc4ccc(-c5cnc([C@@H]6CCCN6C(=O)[C@@H](NC(=O)OC)C6CCOCC6)[nH]5)cc4cn3)cc2F)[nH]1)C(C)C` [compound 128], the EC50 is less than 1 nM.

In the case of `COC(=O)N[C@H](C(=O)N1CCC[C@H]1c1ncc(-c2ccc(-c3ccc4cc(-c5cnc([C@@H]6CCCN6C(=O)[C@H](NC(=O)OC)c6ccccc6)[nH]5)ccc4n3)c(F)c2)[nH]1)C1CCOCC1` [compound 129], the EC50 is less than 1 nM.

As for `COC(=O)N[C@H](C(=O)N1CCC[C@H]1c1ncc(-c2cccc(-c3cccc4cc(-c5cnc([C@@H]6CCCN6C(=O)[C@@H](NC(=O)OC)C(C)C)[nH]5)ccc34)c2)[nH]1)C(C)C` [compound 130], the EC50 was less than 1 nM.

With `COC(=O)N[C@H](C(=O)N1CCC[C@H]1c1ncc(-c2ccc3cc(-c4ccc(-c5cnc([C@@H]6COCCN6C(=O)[C@H](NC(=O)OC)c6ccccc6)[nH]5)cc4)ccc3c2)[nH]1)C(C)C` [compound 131], the EC50 is less than 1 nM.

With `COC(=O)N[C@H](C(=O)N1CCC[C@H]1c1ncc(-c2ccc(-c3ccc4cc(-c5cnc([C@@H]6COCCN6C(=O)[C@H](NC(=O)OC)c6ccccc6)[nH]5)ccc4c3)cc2)[nH]1)C(C)C` [compound 132], the EC50 is less than 1 nM.

Take `COC(=O)N[C@H](C(=O)N1CCC[C@H]1c1ncc(-c2ccc(-c3ccc4cc(-c5cnc([C@@H]6CCCN6C(=O)[C@@H](NC(=O)OC)C6CCOCC6)[nH]5)ccc4c3)cc2)[nH]1)C1CCOCC1` [compound 133]: the EC50 was less than 1 nM.
